US8937064B2, “Pyrazolo[1,5-a]pyrimidines useful as JAK2 inhibitors” (Vertex Pharmaceuticals Incorporated, priority 2007, dated 2015)

Columns and labels:
[1] = target: T1, JAK3 (Homo sapiens, UniProt P52333); test: JAK3 Inhibition Assay; type: biochemical; conditions: 1 nM JAK3, 1 μM poly(Glu)4Tyr, 5 μM ATP, 25° C., 33P incorporation
T1 sequence (P52333 1-1124): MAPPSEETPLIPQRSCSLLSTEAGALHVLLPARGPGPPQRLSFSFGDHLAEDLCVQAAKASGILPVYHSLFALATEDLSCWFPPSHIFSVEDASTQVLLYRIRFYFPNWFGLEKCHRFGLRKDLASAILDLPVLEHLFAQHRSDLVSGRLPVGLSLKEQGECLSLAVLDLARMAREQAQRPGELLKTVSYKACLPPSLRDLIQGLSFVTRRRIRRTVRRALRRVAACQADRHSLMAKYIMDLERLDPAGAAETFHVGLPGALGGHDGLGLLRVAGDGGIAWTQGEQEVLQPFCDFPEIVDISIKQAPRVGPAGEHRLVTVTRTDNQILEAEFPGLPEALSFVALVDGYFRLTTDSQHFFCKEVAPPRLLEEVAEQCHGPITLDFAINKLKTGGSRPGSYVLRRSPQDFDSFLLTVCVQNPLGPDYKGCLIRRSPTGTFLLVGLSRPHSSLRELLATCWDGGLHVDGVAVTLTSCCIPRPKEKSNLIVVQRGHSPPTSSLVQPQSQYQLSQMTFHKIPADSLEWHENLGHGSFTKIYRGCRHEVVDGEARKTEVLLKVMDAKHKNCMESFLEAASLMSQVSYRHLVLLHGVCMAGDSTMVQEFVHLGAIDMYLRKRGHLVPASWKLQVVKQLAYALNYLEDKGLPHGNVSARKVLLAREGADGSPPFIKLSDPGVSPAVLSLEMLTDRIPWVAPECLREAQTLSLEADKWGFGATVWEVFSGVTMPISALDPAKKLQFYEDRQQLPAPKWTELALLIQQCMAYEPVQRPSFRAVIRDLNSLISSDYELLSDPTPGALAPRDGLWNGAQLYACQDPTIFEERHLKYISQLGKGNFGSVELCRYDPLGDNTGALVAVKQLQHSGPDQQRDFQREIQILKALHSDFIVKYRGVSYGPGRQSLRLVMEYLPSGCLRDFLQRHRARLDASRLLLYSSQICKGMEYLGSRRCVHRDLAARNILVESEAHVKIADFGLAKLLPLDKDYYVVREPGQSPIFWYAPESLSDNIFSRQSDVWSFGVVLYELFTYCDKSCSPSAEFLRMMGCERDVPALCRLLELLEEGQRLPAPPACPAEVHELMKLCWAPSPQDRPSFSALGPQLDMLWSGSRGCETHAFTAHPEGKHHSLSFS

[2] = target: JAK-2 enzyme (Homo sapiens, UniProt O60674); test: JAK2 Inhibition Assay
JAK-2 enzyme, sequence (O60674 whole entry): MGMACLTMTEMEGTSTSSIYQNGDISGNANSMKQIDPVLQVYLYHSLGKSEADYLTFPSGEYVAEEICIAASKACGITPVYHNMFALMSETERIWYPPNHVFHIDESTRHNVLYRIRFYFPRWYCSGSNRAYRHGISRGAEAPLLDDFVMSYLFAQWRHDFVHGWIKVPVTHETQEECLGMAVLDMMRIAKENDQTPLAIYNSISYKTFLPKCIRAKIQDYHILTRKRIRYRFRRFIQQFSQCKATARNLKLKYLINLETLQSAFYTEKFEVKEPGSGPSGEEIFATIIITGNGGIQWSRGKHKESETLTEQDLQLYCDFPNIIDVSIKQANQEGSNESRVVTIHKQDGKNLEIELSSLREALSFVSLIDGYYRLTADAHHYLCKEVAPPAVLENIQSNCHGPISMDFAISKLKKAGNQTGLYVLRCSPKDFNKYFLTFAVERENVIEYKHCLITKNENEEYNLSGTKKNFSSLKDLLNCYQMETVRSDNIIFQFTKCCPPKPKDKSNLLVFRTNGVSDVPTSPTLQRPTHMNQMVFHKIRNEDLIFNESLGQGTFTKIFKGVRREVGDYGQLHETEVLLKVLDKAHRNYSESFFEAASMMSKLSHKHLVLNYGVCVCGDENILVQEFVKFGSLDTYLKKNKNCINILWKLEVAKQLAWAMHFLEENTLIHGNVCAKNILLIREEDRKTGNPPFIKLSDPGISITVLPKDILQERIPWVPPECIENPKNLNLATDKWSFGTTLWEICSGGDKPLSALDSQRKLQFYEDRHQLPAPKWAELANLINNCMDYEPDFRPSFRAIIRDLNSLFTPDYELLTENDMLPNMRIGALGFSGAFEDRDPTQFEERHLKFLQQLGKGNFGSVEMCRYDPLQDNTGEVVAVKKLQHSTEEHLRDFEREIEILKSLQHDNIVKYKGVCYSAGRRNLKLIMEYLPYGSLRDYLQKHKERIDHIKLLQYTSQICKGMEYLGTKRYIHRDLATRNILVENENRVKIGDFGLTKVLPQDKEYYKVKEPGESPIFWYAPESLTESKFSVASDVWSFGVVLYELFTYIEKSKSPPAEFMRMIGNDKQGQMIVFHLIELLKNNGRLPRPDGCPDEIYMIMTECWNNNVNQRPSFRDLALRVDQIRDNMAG
Protocol: Reactions were carried out in a kinase buffer containing 100 mM HEPES (pH 7.4), 1 mM DTT, 10 mM MgCl2, 25 mM NaCl, and 0.01% BSA. Substrate concentrations in the assay were 5 μM ATP (200 uCi/μmole ATP) and 1 μM poly(Glu)4Tyr. Reactions were carried out at 25° C. and 1 nM JAK3.
To each well of a 96 well polycarbonate plate was added 1.5 μl of a candidate JAK3 inhibitor along with 50 μl of kinase buffer containing 2 μM poly(Glu)4Tyr and 10 μM ATP. This was then mixed and 50 μl of kinase buffer containing 2 nM JAK3 enzyme was added to start the reaction. After 20 minutes at room temperature (25° C.), the reaction was stopped with 50 μl of 20% trichloroacetic acid (TCA) that also contained 0.4 mM ATP. The entire contents of each well were then transferred to a 96 well glass fiber filter plate using a TomTek Cell Harvester. After washing, 60 μl of scintillation fluid was added and ^33P incorporation detected on a Perkin Elmer TopCount.

| Compound | Ki [1] | Ki [2] |
| --- | --- | --- |
| CC(C)[C@@H](Nc1cc(-c2c(N)nn3cccnc23)nc(N2CCOCC2)n1)c1ccc(F)cc1F [Compound 104] | 500 to 5000 nM | 100 to 500 nM |
| COCCNc1nc(N[C@@H](C)c2ccc(F)cc2)cc(-c2c(N)nn3cccnc23)n1 [Compound 119] | 10 to 100 nM | < 10 nM |
| C[C@H](Nc1cc(-c2cnn3cccnc23)nc(OCCN(C)C)n1)c1ccc(F)cc1F [Compound 197] | 10 to 100 nM | < 10 nM |
| C#CC(CC)Oc1nc(N[C@@H](C)c2ccc(F)cc2)cc(-c2c(N)nn3cccnc23)n1 (stereo partly drawn) [Compound 180] | 100 to 500 nM | < 10 nM |
| CC#CCOc1nc(N[C@@H](C)c2ccc(F)cc2)cc(-c2c(N)nn3cccnc23)n1 [Compound 151] | 100 to 500 nM | 10 to 100 nM |
| CCC[C@H](Nc1cc(-c2c(N)nn3cccnc23)nc(N2CCOCC2)n1)c1ccc(F)cc1F [Compound 107] | 100 to 500 nM | 10 to 100 nM |
| C[C@H](Nc1cc(-c2cnn3cccnc23)nc(OCC2CCOC2)n1)c1ccc(F)cc1F (stereo partly drawn) [Compound 222] | 10 to 100 nM | < 10 nM |
| C=C(C)COc1nc(N[C@@H](C)c2ccc(F)cc2)cc(-c2c(N)nn3cccnc23)n1 [Compound 175] | 100 to 500 nM | < 10 nM |
| C[C@H](Nc1cc(-c2c(N)nn3cccnc23)nc(OCC2CCCC2)n1)c1ccc(F)cc1 [Compound 176] | 100 to 500 nM | 10 to 100 nM |
| C[C@H](Nc1cc(-c2c(N)nn3cccnc23)nc(N2CCOCC2)n1)c1ccc(F)cc1F [Compound 106] | 10 to 100 nM | < 10 nM |
| C[C@H](Nc1cc(-c2cnn3cccnc23)nc(OCCOCCN2CCNCC2)n1)c1ccc(F)cc1F [Compound 203] | 100 to 500 nM | 10 to 100 nM |
| Nc1nn2cccnc2c1-c1cc(NCc2ccsc2Br)ncn1 [Compound 36] | 10 to 100 nM | < 10 nM |
| C[C@H](Nc1cc(-c2cnn3cccnc23)nc(NC(=O)CCN2CCCC2=O)n1)c1ccc(F)cc1F [Compound 185] | 100 to 500 nM | < 10 nM |
| C[C@@H](c1ccccc1)N(C)c1cc(-c2c(N)nn3cccnc23)ncn1 [Compound 19] | 100 to 500 nM | 10 to 100 nM |
| C[C@H](Nc1cc(-c2cnn3cccnc23)ncn1)c1ccc(F)cc1 [Compound 114] | 10 to 100 nM | < 10 nM |
| C[C@H](Nc1cc(-c2c(N)nn3ccc(C(F)(F)F)nc23)ncn1)c1ccc(F)cc1F [Compound 135] | 100 to 500 nM | 10 to 100 nM |
| CCC[C@H](Nc1cc(-c2cnn3cccnc23)ncn1)c1ccc(F)cc1F [Compound 122] | 10 to 100 nM | < 10 nM |
| C[C@H](Nc1cc(-c2cnn3cccnc23)nc(OC2CCN(C)CC2)n1)c1ccc(F)cc1F [Compound 200] | 100 to 500 nM | < 10 nM |
| Nc1nn2cccnc2c1-c1cc(N2Cc3ccccc3C2)ncn1 [Compound 27] | 100 to 500 nM | 10 to 100 nM |
| O=C(Nc1ccnc(-c2cnn3cccnc23)c1)c1ccc(F)cc1 [Compound 227] | 500 to 5000 nM | 100 to 500 nM |
| COCC(=O)Nc1nc(N[C@@H](C)c2ccc(F)cc2F)cc(-c2cnn3cccnc23)n1 [Compound 187] | 10 to 100 nM | < 10 nM |
| C[C@H](Nc1cc(-c2c(N)nn3cccnc23)nc(S(C)(=O)=O)n1)c1ccc(F)cc1F [Compound 111] | < 10 nM | < 10 nM |
| C=COCCCCOc1nc(N[C@@H](C)c2ccc(F)cc2)cc(-c2c(N)nn3cccnc23)n1 [Compound 174] | 100 to 500 nM | 10 to 100 nM |
| C[C@H](Nc1cc(-c2c(N)nn3cccnc23)nc(OCC2(C)CC2)n1)c1ccc(F)cc1 [Compound 143] | 100 to 500 nM | 10 to 100 nM |
| CC1CC1COc1nc(N[C@@H](C)c2ccc(F)cc2)cc(-c2c(N)nn3cccnc23)n1 (stereo partly drawn) [Compound 158] | 100 to 500 nM | 10 to 100 nM |
| Nc1nn2cccnc2c1-c1cc(N[C@@H](CCO)c2ccccc2)nc(N2CCOCC2)n1 [Compound 102] | 100 to 500 nM | 10 to 100 nM |

Second part, the compound after the results:

| Ki [1] | Ki [2] | Compound |
| --- | --- | --- |
| 100 to 500 nM | < 10 nM | CCC1c2ccccc2CCN1c1cc(-c2c(N)nn3cccnc23)ncn1 (stereo not drawn) [Compound 64] |
| 100 to 500 nM | 10 to 100 nM | CCC[C@H](Nc1cc(-c2c(N)nn3cccnc23)nc(N2CCOCC2)n1)c1ccc(F)cc1 [Compound 103] |
| 100 to 500 nM | < 10 nM | CCC(=O)Nc1nc(N[C@@H](C)c2ccc(F)cc2F)cc(-c2cnn3cccnc23)n1 [Compound 188] |
| 10 to 100 nM | < 10 nM | C[C@H](Nc1cc(-c2c(N)nn3cccnc23)nc(OCCN2CCCC2=O)n1)c1ccc(F)cc1F [Compound 128] |
| 10 to 100 nM | < 10 nM | CC(C)OCCOc1nc(N[C@@H](C)c2ccc(F)cc2F)cc(-c2cnn3cccnc23)n1 [Compound 219] |
| 100 to 500 nM | 10 to 100 nM | Nc1nn2cccnc2c1-c1cc(N[C@@H]2CCCc3ccccc32)ncn1 [Compound 79] |
| 100 to 500 nM | 10 to 100 nM | CC(C)[C@@H](Nc1cc(-c2cnn3cccnc23)ncn1)c1ccc(F)cc1F [Compound 120] |
| 10 to 100 nM | < 10 nM | CCN(CC)CCOc1nc(N[C@@H](C)c2ccc(F)cc2)cc(-c2c(N)nn3cccnc23)n1 [Compound 99] |
| 100 to 500 nM | 10 to 100 nM | C[C@H](Nc1ccnc(-c2cnn3cccnc23)n1)c1ccc(F)cc1 [Compound 224] |
| 100 to 500 nM | 10 to 100 nM | Nc1nn2cccnc2c1-c1cc(NCc2csc3ccccc23)ncn1 [Compound 31] |
| 10 to 100 nM | < 10 nM | CC(C)NCCOc1nc(N[C@@H](C)c2ccc(F)cc2F)cc(-c2cnn3cccnc23)n1 [Compound 207] |
| 100 to 500 nM | 10 to 100 nM | Nc1nn2cccnc2c1-c1cc(NCc2cc(C(F)(F)F)ccc2F)ncn1 [Compound 45] |
| 10 to 100 nM | < 10 nM | Nc1nn2cccnc2c1-c1cc(NC2(c3ccc(F)cc3)CC2)ncn1 [Compound 90] |
| < 10 nM | < 10 nM | C[C@H](Nc1cc(-c2c(N)nn3cccnc23)nc(C#N)n1)c1ccc(F)cc1F [Compound 140] |
| 10 to 100 nM | < 10 nM | Cc1ccccc1CNc1cc(-c2c(N)nn3cccnc23)ncn1 [Compound 11] |
| 100 to 500 nM | 100 to 500 nM | CCC[C@H](Nc1cc(-c2c(N)nn3ccc(C(F)(F)F)nc23)ncn1)c1ccc(F)cc1F [Compound 137] |
| 10 to 100 nM | < 10 nM | C[C@H](Nc1cc(-c2c(N)nn3cccnc23)nc(N2CCOCC2)n1)c1ccc(F)cc1 [Compound 96] |
| 10 to 100 nM | 10 to 100 nM | Nc1nn2cccnc2c1-c1cc(NCc2ccco2)ncn1 [Compound 24] |
| 100 to 500 nM | 10 to 100 nM | Nc1nn2cccnc2c1-c1cc(O[C@H](c2ccccc2)C(F)(F)F)ncn1 [Compound 69] |
| 10 to 100 nM | < 10 nM | COC(C)(C)CCOc1nc(N[C@@H](C)c2ccc(F)cc2F)cc(-c2c(N)nn3cccnc23)n1 [Compound 138] |
| 100 to 500 nM | 10 to 100 nM | CCC#CCOc1nc(N[C@@H](C)c2ccc(F)cc2)cc(-c2c(N)nn3cccnc23)n1 [Compound 162] |
| 10 to 100 nM | < 10 nM | CSc1nc(N[C@@H](C)c2ccc(F)cc2)cc(-c2c(N)nn3cccnc23)n1 [Compound 92] |
